Assay results reported in ChEMBL document CHEMBL6078690, “Targeting HMGB1 and Its Interaction with Receptors: Challenges and Future Directions” (J Med Chem, 2024).

tested on: RAW264.7; test: Anti-inflammatory activity against mouse RAW264.7 cells assessed as inhibition of LPS-induced NO production

| IC50 [µM] | Structure (SMILES) |
| --- | --- |
| 15.9 | COc1ccc(/C=C/C(=O)C[C@H]2CC[C@]3(C)[C@H]4C(=O)C=C5[C@@H]6C[C@@](C)(C(=O)Oc7cn(C8O[C@@H](OC(C)=O)[C@@H](OC(C)=O)[C@@H](OC(C)=O)[C@@H]8OC(C)=O)nn7)CC[C@]6(C)CC[C@@]5(C)[C@]4(C)CC[C@H]3C2(C)C)cc1 (stereo not given in full) |
| 13.4 | COC(=O)C(Cc1c[nH]c2ccccc12)NC(=O)[C@@]1(C)CC[C@]2(C)CC[C@]3(C)C(=CC(=O)[C@@H]4[C@@]5(C)CCC(OC(=O)CCCCC6CCSS6)C(C)(C)[C@@H]5CC[C@]43C)[C@@H]2C1 (stereo not given in full) |
| 5 | CC1(C)[C@@H](OC(=O)CCC(=O)O)CC[C@]2(C)[C@H]3C(=O)C=C4[C@@H]5C[C@@](C)(C(=O)O)CC[C@]5(C)CC[C@@]4(C)[C@]3(C)CC[C@@H]12 [CARBENOXOLONE] |

| Structure (SMILES) | IC50 [µM] |
| --- | --- |
| O=C(O[C@@H]1Cc2c(O)cc(O)cc2O[C@@H]1c1cc(O)c(O)c(O)c1)c1cc(O)c(O)c(O)c1 [EPIGALOCATECHIN GALLATE] | < 1 |

molecular target: T1, High mobility group protein B1 (Homo sapiens, UniProt P09429)
T1 sequence (P09429 whole entry): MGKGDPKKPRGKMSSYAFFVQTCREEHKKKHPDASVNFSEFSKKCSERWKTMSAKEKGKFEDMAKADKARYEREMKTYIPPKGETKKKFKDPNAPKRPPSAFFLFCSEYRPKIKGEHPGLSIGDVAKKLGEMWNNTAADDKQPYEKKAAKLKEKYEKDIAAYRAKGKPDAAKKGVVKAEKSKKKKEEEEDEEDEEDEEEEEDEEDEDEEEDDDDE
Description: Binding affinity to HMGB1 (unknown origin) assessed as dissociation constant by SPR analysis

| Kd [µM] | Structure (SMILES) |
| --- | --- |
| 4.5 | CO[C@H]1O[C@H](COS(=O)(=O)O)[C@@H](O[C@@H]2O[C@@H](C(=O)O)[C@@H](COC[C@H]3O[C@H](COS(=O)(=O)O)[C@@H](O[C@@H]4O[C@H](C(=O)O)[C@@H](COC[C@H]5O[C@H](COS(=O)(=O)O)[C@@H](O)[C@H](O)[C@H]5NS(=O)(=O)O)[C@H](O)[C@H]4O)[C@H](OS(=O)(=O)O)[C@H]3NS(=O)(=O)O)[C@H](O)[C@H]2OS(=O)(=O)O)[C@H](O)[C@H]1NS(=O)(=O)O |
| 1 | CC(=O)Oc1ccccc1C(=O)O [ASPIRIN] |
| 0.12 | COc1ccc(-c2coc3cc(O)ccc3c2=O)cc1O [CALYCOSIN] |
| 16 | O=C(O)c1cc(-c2ccc(F)cc2F)ccc1O [DIFLUNISAL] |
| 0.1 | O=c1c(O[C@@H]2O[C@H](CO)[C@@H](O)[C@H](O)[C@H]2O)c(-c2ccc(O)c(O)c2)oc2cc(O)cc(O)c12 [ISOQUERCETIN] |
| 0.26 | C[C@@H]1O[C@@H](OC[C@H]2O[C@@H](Oc3c(-c4ccc(O)c(O)c4)oc4cc(O)cc(O)c4c3=O)[C@H](O)[C@@H](O)[C@@H]2O)[C@H](O)[C@H](O)[C@H]1O [RUTIN] |
